Each structure is given as a SMILES string. Read-outs that look alike come from different tables or passages of the source.

One data set has as its system mouse. In words: Acetic Acid Writhing Test (AAWT), mouse. To be noted: po. Format: in vivo. An excerpt: (§1) Using the procedure described by Koster et al. in Fed. […] 26, Anti-inflammatory Drugs, Ed.
Background: In writhing tests, fewer writhes than in controls are read as antinociception.

Data set [1] deals with rat. In words: Acetic Acid Writhing Test (AAWT), rat. The following applies: po. Format: in vivo.
Text: as §1

Data set [2] relates to rat. The experiment in a line: Trypsin Hyperalgesic Assay (Published THA). Format: in vivo. The following applies: for ED50: po, 0.5 h. Here is the method:
(§2) The analgesic agents were administered 30 minutes after the administration of trypsin. In addition, a modification of Vinegar's published assay was carried out, comprising the administration of the analgesic agent preceding subplantar injection of trypsin (0.10 ml of 10% solution of trypsin in pyrogen-free water) by 15 minutes. In both THA's, pain scores were determined 60 minutes after trypsin injection.

Data set [3] has as its system rat. The experiment in a line: Trypsin Hyperalgesic Assay (Modified THA). Format: in vivo. To be noted: po. Here is the method: as §2
The test system of data set [4] is rat. In words: Carrageenin Pleurisy Assay (CPA), 3 hour exudate volume. Format: in vivo. The following applies: for ED50: po, read-out: ED50, 3 hr. Vol.
The test system of data set [5] is rat. In words: Carrageenin Pleurisy Assay (CPA), mobilized neutrophils at 3 hours. Type of data set: in vivo. To be noted: Neutrophil, po, read-out: ED50, 3 hr. Cells. Here is the method:
Following the procedure described by Vinegar et al. in Proc Soc Exp Biol Med 151, 556, (1976), the acute anti-inflammatory activity of the compound of formula (I) was compared with that of known anti-inflammatory drugs in the rat. Two assays were performed: in the first, the average 3 hour exudate volume for each drug-treated group was determined and the % inhibition relative to solvent-fed control animals calculated, the ED50 being the dose required to reduce the 3 hour exudate volume by 50%; in the second, the number of mobilized neutrophils was quantified and the % inhibition relative to solvent-fed control animals calculated, the ED50 being the dose required to reduce the number of neutrophils mobilized at 3 hours by 50%.

Data set [6] concerns rat. The experiment in a line: Carrageenin Hindlimb Oedema Assay (CHOA). Type of data set: in vivo. Background: In the carrageenan paw model, swelling and tenderness develop within hours.
Data set [7] concerns rat. The experiment in a line: Yeast-Induced Hyperthermia Assay. Format: in vivo. The following applies: for ED50: po; for antipyretic and hypothermic activity: rat. An excerpt: The Yeast-Induced Hyperthermia Assay was used according to the procedure described by Khalili-Varasteh et al. in Arch. Int. Pharmacodyn.
A short description of a further data set: Toxicity Test. The following applies: rat, in vivo, po. Here is the method: Four non-fasted male rats of 160-250 gram body weight was used for each dose level. The compound to be tested was administered by the indicated route and the symptom onset time, the intensity of the effect and the duration during a 4 hour observation period were recorded. The LD50 estimation was based on a 7 day observation and was determined by the method of Miller and Tainter (Proc. Soc. Exp. Biol. Med. 57, 261 (1944)).

For data set [8], the system named is rat. Format: in vivo.
Data set [9] in a line: acetic acid writhing assays (species not stated). Format: in vivo. The following applies: in words.
Another data set is described as follows: solubility of the base. Format: physicochemical.
The nature of data set [10]: inhibition of analgesic activity by naloxone. Format: in vivo.
In a further data set the test system is brain. The experiment in a line: analgesic activity when injected directly into the brain. Format: in vivo.
In the next data set the test system is morphine receptor. In words: binding to the morphine receptor.
Data set [11] concerns prostaglandin cyclooxygenase. The experiment in a line: inhibition of prostaglandin cyclooxygenase. Format: biochemical.
A further data set deals with peroxidase. The experiment in a line: inhibition of peroxidase. Type of data set: biochemical.
In the next data set the test system is lipoxygenase. In words: inhibition of lipoxygenase. Type of data set: biochemical.
Data set [12] concerns rat. The experiment in a line: anti-inflammatory action in the rat, in words (carrageenin pleurisy and carrageenin hindlimb oedema assays). Format: in vivo.
The mark [13] stands for this setting: male rats, 7 day observation, method of Miller and Tainter, read-out: LD50.
Setting [14] is: AAWT, rat, p.o., read-out: ED50.
[15] abbreviates: Published THA, rat, p.o., agent 30 minutes after trypsin, read-out: ED50.
[16] abbreviates: Modified THA, rat, p.o., agent 15 minutes before trypsin, read-out: ED50.
Where [17] appears, read: CPA, 3 hour exudate volume reduced by 50%, rat, p.o.
Where [18] appears, read: CPA, neutrophils mobilized at 3 hours reduced by 50%, rat, p.o.
The mark [19] stands for this setting: Rat Yeast Hyperthermia, p.o., read-out: ED50.

Take `CC(=O)Oc1ccccc1C(=O)O` [Aspirin]: the ED50 in the data set with mouse (Mus musculus) is 137 ± 16.9 mg/kg; in the data set with rat [1] (Rattus norvegicus) it was 21 ± 3.4 mg/kg; in the data set on rat [2] (Rattus norvegicus), greater than 180 mg/kg; with rat [3] (Rattus norvegicus), greater than 180 mg/kg; with rat [4] (Rattus norvegicus, 3 h), 28 ± 3.2 mg/kg; in the data set with rat [5] (Rattus norvegicus, 3 h), 75 ± 7.5 mg/kg. Also, the results for the ED50 in the data set on rat [6] (Rattus norvegicus) and in the data set with rat [7] were 145 ± 74 mg/kg and 50 ± 8.1 mg/kg, respectively. Also, the NOAEL at 4 h in “Toxicity Test” (male rats, 4 hour observation, read-out: No symptom dose) was found to be 10 mg/kg. In “Toxicity Test” (setting [13]), the LD50 at 168 h was found to be 1610 mg/kg. Also, the gastric damage entry in the data set on rat [8] (single oral dose of 30 mg/kg) was “produces ulcers and haemorrhages”. For the same molecule, the “activity in the former (acetic acid writhing) assay” value in [9] is “inactive in the former assay”.

As for `O=C1CCCN1c1cccc2cccnc12` [Compound of Formula (I), 1-(8-quinolyl)-2-pyrrolidinone], the 50% effective dose (ED50) was 99 ± 9.8 mg/kg with mouse (AAWT, mouse, p.o., read-out: ED50); 22 ± 2.1 mg/kg in the data set with rat [1] (setting [14]); 37 ± 7.8 mg/kg with rat [2] (setting [15]); 13 ± 1.8 mg/kg with rat [3] (setting [16]); 20 ± 4.3 mg/kg with rat [4] (setting [17]); 37 ± 10.4 mg/kg in the data set with rat [5] (setting [18]). Moreover, the ED50 worked out at 54 ± 31.6 mg/kg in the data set on rat [6] (CHOA, rat, read-out: ED50) and 22 ± 3.9 mg/kg with rat [7] (setting [19]). The “duration of analgesic activity (time of drug administration prior to trypsin in which inhibition of hyperalgesia declined to 40%)” value in the data set on rat [2] (published THA, 75 mg/kg (p.o.)) was 10.8 h. The “duration of acute anti-inflammatory activity (time of drug administration prior to carrageenin in which inhibition of 3 hour pleural exudate volume declined to 40%)” value with rat [4] (CPA, 80 mg/kg (p.o.)) is 9 h. Also, in the data set on rat [7] (in words, higher dose levels), the “effect on body temperature of rats with a normal temperature” value is “lowers the body temperature of rats”. Moreover, the “antipyretic and hypothermic activity” value with rat [7] (in words) was “antipyretic and hypothermic activity”. Also, in the data set “Toxicity Test”, the NOAEL at 4 h was determined as 250 mg/kg. In addition, in the data set “Toxicity Test” (setting [13]), the LD50 at 168 h is 1650 mg/kg. For the same molecule, the gastric damage entry in the data set with rat [8] (rat, 5 days of oral dosing at 40 mg/kg) was “does not produce gastric damage”; in the data set with rat [8] (rat, single oral dose of 200 mg/kg), “does not produce gastric damage”. The solubility in the data set “solubility of the base” (in 0.1 N HCl) and in “solubility of the base” (in water) was greater than 50 mg/mL in each case. Further, in [10], the “inhibition of analgesic activity by naloxone” value is listed as “not inhibited by naloxone”. Moreover, the “analgesic activity on injection into the brain” value with brain was “inactive when injected directly into the brain”. Also, the “binding to the morphine receptor” value in the data set with morphine receptor is recorded as “does not appreciably bind to the morphine receptor”. Moreover, the “inhibition of prostaglandin cyclooxygenase” value in data set [11] was “does not inhibit”. The inhibition of peroxidase entry in the data set on peroxidase is given as “does not inhibit”. The inhibition of lipoxygenase entry with lipoxygenase is reported as “does not inhibit”. For the same molecule, the anti-inflammatory activity entry in the data set on rat [12] (rat) is reported as “potent, long-lasting acute anti-inflammatory activity”. Also, in the data set on rat [12] (versus acetaminophen), the “anti-inflammatory effect compared with acetaminophen” value is “more potent and to have a longer lasting anti-inflammatory effect”.

On to `CC(=O)Nc1ccc(O)cc1` [Acetaminophen], for which the ED50 with rat [1] (setting [14]) stood at 127 ± 16.6 mg/kg; in the data set on rat [2] (setting [15]) it was 360 mg/kg; in the data set with rat [3] (setting [16]), 95 ± 17.2 mg/kg; with rat [4] (setting [17]) it was 172 ± 22.4 mg/kg; in the data set with rat [5] (setting [18]) it was 189 ± 48.6 mg/kg; with rat [7] (setting [19]), 72 ± 8.6 mg/kg. Moreover, the “duration of acute anti-inflammatory activity (time of drug administration prior to carrageenin in which inhibition of 3 hour pleural exudate volume declined to 40%)” value in the data set with rat [4] (CPA, 220 mg/kg (p.o.)) was “over 2 hours”. The “antipyretic and hypothermic activity” value in the data set with rat [7] (in words) was “antipyretic and hypothermic activity”. Besides, the LD50 at 168 h in the data set “Toxicity Test” was found to be 2000 mg/kg. The NOAEL at 4 h in “Toxicity Test” is 250 mg/kg.

The ED50 is the dose at which the effect has come halfway, by size or by number of responders. For orientation: LD50 means the dose expected to kill half of the subjects tested. As a reminder, the solubility is how much of the substance goes into solution per volume.
